According to the kinase profiling compilation of Christmann-Franck et al. (2016):

Assays:
Assay in all cases: KINOMEscan competition binding
Settings in all cases: compound 10.0 µM
[1] = system: FLT3 (human), P36888 [D835Y]
CSNK1G3 (human) = CSNK1G3 (human) (UniProt Q9Y6M4)
EPHA4 (human) = EPHA4 (human) (UniProt P54764)
DCLK1 (human) = DCLK1 (human) (UniProt O15075)
MYLK (human) = MYLK (human) (UniProt Q15746)
RIPK1 (human) = RIPK1 (human) (UniProt Q13546)
MAP3K1 (human) = MAP3K1 (human) (UniProt Q13233)
DSTYK (human) = DSTYK (human) (UniProt Q6XUX3)
EPHA5 (human) = EPHA5 (human) (UniProt P54756)
CASK (human) = CASK (human) (UniProt O14936)
PRKCI (human) = PRKCI (human) (UniProt P41743)
SNRK (human) = SNRK (human) (UniProt Q9NRH2)
GAK (human) = GAK (human) (UniProt O14976)
CSNK2A2 (human) = CSNK2A2 (human) (UniProt P19784)
CDK9 (human) = CDK9 (human) (UniProt P50750)
BMPR1B (human) = BMPR1B (human) (UniProt O00238)
DCLK3 (human) = DCLK3 (human) (UniProt Q9C098)
DCLK3 (human), sequence (Q9C098 whole entry, looked up): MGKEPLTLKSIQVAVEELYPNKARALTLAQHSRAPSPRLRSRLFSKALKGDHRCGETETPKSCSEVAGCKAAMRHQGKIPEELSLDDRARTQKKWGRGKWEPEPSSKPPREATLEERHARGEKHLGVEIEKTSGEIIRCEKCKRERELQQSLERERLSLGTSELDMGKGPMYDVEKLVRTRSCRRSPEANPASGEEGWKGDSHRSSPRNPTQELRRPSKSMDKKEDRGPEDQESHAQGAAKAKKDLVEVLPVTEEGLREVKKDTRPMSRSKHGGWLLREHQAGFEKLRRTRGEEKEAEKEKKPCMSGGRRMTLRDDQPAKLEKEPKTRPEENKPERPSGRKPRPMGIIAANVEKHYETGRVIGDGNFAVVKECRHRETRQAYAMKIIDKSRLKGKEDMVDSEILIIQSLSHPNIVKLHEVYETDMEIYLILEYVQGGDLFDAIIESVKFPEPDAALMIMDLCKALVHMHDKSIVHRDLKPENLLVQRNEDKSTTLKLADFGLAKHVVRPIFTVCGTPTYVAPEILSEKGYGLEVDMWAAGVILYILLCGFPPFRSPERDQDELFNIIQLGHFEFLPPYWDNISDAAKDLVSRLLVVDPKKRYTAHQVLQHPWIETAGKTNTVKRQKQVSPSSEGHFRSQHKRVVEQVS

[2] = system: LRRK2 (human), Q5S007 [G2019S]
[3] = system: PIK3CA (human), P42336 [E542K]
SRC (human) = SRC (human) (UniProt P12931)
CSNK2A1 (human) = CSNK2A1 (human) (UniProt P68400)
CDK8 (human) = CDK8 (human) (UniProt P49336)
BMP2K (human) = BMP2K (human) (UniProt Q9NSY1)
BLK (human) = BLK (human) (UniProt P51451)
MAPK15 (human) = MAPK15 (human) (UniProt Q8TD08)
[4] = system: MET (human), P08581 [M1250T]
[5] = target: TYK2 JH2 pseudokinase (human) (UniProt P29597)
ANKK1 (human) = ANKK1 (human) (UniProt Q8NFD2)
ANKK1 (human), sequence (Q8NFD2 whole entry, looked up): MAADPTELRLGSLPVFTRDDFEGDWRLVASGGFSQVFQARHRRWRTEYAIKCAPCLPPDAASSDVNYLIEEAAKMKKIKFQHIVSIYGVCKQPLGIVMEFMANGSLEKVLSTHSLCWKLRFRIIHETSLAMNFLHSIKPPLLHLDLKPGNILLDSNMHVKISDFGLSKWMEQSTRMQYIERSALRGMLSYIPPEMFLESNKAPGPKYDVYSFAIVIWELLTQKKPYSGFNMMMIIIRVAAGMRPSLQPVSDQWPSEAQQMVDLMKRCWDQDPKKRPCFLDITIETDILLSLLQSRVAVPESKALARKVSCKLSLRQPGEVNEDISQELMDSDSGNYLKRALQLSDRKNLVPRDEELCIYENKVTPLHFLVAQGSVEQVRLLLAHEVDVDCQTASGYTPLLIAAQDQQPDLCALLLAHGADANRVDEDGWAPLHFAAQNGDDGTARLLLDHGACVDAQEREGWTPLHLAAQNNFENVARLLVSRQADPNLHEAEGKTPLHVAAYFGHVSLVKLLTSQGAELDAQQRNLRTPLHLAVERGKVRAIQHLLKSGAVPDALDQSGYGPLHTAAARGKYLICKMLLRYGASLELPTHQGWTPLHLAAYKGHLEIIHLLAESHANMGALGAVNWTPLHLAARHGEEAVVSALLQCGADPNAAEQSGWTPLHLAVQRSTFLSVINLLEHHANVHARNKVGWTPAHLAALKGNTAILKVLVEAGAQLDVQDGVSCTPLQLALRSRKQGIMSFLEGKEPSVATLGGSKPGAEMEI

DYRK1B (human) = DYRK1B (human) (UniProt Q9Y463)
ACVR1B (human) = ACVR1B (human) (UniProt P36896)
MAP2K4 (human) = MAP2K4 (human) (UniProt P45985)
MAP2K4 (human), sequence (P45985 whole entry, looked up): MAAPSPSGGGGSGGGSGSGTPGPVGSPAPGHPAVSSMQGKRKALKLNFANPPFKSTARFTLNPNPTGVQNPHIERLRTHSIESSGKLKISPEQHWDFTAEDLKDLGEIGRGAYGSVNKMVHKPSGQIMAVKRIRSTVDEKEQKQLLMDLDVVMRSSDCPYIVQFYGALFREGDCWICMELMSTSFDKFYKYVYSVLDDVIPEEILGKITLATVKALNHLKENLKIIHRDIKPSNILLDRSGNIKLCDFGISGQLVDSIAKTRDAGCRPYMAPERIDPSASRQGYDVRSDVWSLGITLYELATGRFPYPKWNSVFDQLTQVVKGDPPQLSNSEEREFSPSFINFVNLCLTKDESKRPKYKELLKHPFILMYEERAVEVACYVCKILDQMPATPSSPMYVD

MAP2K5 (human) = MAP2K5 (human) (UniProt Q13163)
MAP2K5 (human), sequence (Q13163 whole entry, looked up): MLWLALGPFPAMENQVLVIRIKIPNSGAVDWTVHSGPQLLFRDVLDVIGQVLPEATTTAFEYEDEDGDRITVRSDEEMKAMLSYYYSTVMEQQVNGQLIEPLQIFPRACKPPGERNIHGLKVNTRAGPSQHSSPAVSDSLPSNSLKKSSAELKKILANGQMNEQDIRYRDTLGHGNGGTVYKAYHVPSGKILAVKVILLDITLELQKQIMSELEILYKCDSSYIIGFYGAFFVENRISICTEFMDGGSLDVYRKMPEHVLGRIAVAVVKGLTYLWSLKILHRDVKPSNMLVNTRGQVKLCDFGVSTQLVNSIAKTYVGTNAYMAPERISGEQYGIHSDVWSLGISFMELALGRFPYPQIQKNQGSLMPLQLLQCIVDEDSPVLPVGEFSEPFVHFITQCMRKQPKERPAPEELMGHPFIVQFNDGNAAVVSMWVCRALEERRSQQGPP

BMX (human) = BMX (human) (UniProt P51813)
BMX (human), sequence (P51813 whole entry, looked up): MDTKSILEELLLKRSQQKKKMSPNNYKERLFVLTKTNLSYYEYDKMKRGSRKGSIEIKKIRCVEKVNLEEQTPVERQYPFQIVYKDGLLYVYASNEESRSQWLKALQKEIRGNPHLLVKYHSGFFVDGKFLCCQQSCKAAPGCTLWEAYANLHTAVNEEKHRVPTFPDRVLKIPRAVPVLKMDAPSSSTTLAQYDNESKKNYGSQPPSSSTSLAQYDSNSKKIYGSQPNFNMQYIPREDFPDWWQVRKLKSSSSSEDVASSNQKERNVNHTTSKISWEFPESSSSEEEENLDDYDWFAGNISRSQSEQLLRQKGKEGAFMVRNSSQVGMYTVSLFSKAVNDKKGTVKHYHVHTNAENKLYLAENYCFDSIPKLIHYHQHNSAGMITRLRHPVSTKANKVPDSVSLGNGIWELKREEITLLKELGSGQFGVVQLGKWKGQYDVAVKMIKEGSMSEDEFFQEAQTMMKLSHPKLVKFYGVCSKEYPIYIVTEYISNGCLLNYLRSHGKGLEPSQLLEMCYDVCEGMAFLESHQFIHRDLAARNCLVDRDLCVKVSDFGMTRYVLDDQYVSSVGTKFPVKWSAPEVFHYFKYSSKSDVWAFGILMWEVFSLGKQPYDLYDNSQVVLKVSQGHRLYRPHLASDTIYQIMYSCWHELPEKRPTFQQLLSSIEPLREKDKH

MAP4K4 (human) = MAP4K4 (human) (UniProt O95819)
LATS1 (human) = LATS1 (human) (UniProt O95835)
LATS1 (human), sequence (O95835 whole entry, looked up): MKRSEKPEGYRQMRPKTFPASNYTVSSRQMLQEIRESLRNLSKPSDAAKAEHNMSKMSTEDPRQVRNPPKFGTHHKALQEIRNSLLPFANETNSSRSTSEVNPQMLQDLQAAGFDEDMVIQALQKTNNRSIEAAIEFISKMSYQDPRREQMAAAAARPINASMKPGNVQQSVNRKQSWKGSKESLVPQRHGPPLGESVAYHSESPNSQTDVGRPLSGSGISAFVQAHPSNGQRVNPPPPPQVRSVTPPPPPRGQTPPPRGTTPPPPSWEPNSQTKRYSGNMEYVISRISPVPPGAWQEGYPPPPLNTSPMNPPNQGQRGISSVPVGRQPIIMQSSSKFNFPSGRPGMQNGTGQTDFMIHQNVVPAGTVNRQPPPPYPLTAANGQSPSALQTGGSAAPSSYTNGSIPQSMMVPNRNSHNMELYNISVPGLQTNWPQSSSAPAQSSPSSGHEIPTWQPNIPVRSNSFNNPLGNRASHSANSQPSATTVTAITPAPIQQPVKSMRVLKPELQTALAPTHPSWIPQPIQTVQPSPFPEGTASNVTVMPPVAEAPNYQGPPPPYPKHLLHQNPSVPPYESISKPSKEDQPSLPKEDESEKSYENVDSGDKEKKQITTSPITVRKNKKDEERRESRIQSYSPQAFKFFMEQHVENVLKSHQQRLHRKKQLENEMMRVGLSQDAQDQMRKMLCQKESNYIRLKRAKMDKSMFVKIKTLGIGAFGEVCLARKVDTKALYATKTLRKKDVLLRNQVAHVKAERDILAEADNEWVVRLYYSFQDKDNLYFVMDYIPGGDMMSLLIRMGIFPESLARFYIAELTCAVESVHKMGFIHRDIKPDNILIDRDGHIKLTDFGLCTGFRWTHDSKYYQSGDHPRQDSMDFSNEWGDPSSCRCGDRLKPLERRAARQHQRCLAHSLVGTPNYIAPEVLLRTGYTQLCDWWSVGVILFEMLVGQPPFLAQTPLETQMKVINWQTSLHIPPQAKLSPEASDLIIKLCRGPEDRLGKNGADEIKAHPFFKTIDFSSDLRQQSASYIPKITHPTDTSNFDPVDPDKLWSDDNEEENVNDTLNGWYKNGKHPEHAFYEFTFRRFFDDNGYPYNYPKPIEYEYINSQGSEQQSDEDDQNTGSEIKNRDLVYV

STK38 (human) = STK38 (human) (UniProt Q15208)
STK38 (human), sequence (Q15208 whole entry, looked up): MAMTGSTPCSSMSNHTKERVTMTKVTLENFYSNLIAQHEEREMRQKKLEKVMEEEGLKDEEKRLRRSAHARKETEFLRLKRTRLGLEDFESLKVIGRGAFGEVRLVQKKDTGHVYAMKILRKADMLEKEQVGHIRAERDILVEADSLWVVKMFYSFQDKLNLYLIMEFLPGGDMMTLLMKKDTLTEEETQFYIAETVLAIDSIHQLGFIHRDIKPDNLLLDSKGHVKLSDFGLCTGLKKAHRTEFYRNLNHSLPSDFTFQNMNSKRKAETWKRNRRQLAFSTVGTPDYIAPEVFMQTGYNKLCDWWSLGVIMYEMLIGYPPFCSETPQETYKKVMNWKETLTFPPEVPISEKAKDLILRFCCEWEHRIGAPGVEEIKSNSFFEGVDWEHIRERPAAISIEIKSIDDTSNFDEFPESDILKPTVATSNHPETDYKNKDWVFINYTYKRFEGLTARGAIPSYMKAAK

MAK (human) = MAK (human) (UniProt P20794)
ABL2 (human) = ABL2 (human) (UniProt P42684)
TLK1 (human) = TLK1 (human) (UniProt Q9UKI8)
GRK4 (human) = GRK4 (human) (UniProt P32298)
PIK3CA (human) = PIK3CA (human) (UniProt P42336)
LIMK1 (human) = LIMK1 (human) (UniProt P53667)
CAMK2B (human) = CAMK2B (human) (UniProt Q13554)

CSNK1G3 (human), sequence (Q9Y6M4 whole entry, looked up): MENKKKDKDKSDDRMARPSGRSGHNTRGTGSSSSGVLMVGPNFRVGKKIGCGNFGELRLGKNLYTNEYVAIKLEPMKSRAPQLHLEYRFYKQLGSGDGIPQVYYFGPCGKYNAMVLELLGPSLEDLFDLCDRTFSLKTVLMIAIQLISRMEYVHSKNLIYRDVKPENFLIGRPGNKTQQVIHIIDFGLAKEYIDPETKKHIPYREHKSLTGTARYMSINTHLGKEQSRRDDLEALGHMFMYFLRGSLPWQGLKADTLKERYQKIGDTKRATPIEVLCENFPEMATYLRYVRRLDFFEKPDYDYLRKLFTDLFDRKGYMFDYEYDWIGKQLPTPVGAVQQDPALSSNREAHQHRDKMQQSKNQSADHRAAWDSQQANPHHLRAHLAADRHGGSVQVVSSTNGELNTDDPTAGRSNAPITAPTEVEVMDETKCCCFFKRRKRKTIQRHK

Cc1ccc(NC(=O)c2ccc(NC(=O)/C=C/CN(C)C)cc2)cc1Nc1nccc(-c2cccnc2)n1
kinase still bound, per cent of control [1]: 33%
kinase still bound, per cent of control (CSNK1G3 (human)): 71%
kinase still bound, per cent of control (EPHA4 (human)): 100%
kinase still bound, per cent of control (DCLK1 (human)): 84%
kinase still bound, per cent of control (MYLK (human)): 73%
kinase still bound, per cent of control (RIPK1 (human)): 56%
kinase still bound, per cent of control (MAP3K1 (human)): 100%
kinase still bound, per cent of control (DSTYK (human)): 81%
kinase still bound, per cent of control (EPHA5 (human)): 97%
kinase still bound, per cent of control (CASK (human)): 79%
kinase still bound, per cent of control (PRKCI (human)): 97%
kinase still bound, per cent of control (SNRK (human)): 92%
kinase still bound, per cent of control (GAK (human)): 8.6%
kinase still bound, per cent of control (CSNK2A2 (human)): 21%
kinase still bound, per cent of control (CDK9 (human)): 100%
kinase still bound, per cent of control (BMPR1B (human)): 79%
kinase still bound, per cent of control (DCLK3 (human)): 100%
kinase still bound, per cent of control [2]: 48%
kinase still bound, per cent of control [3]: 100%
kinase still bound, per cent of control (SRC (human)): 78%
kinase still bound, per cent of control (CSNK2A1 (human)): 11%
kinase still bound, per cent of control (CDK8 (human)): 93%
kinase still bound, per cent of control (BMP2K (human)): 88%
kinase still bound, per cent of control (BLK (human)): 60%
kinase still bound, per cent of control (MAPK15 (human)): 100%
kinase still bound, per cent of control [4]: 100%
kinase still bound, per cent of control [5]: 14%
kinase still bound, per cent of control (ANKK1 (human)): 13%
kinase still bound, per cent of control (DYRK1B (human)): 68%
kinase still bound, per cent of control (ACVR1B (human)): 70%
kinase still bound, per cent of control (MAP2K4 (human)): 15%
kinase still bound, per cent of control (MAP2K5 (human)): 66%
kinase still bound, per cent of control (BMX (human)): 100%
kinase still bound, per cent of control (MAP4K4 (human)): 78%
kinase still bound, per cent of control (LATS1 (human)): 100%
kinase still bound, per cent of control (STK38 (human)): 80%
kinase still bound, per cent of control (MAK (human)): 100%
kinase still bound, per cent of control (ABL2 (human)): 44%
kinase still bound, per cent of control (TLK1 (human)): 74%
kinase still bound, per cent of control (GRK4 (human)): 88%
kinase still bound, per cent of control (PIK3CA (human)): 100%
kinase still bound, per cent of control (LIMK1 (human)): 85%
kinase still bound, per cent of control (CAMK2B (human)): 100%
